Like-named read-outs stand apart in the source and are kept apart here.
Experiments:
[1] = Solubility in water; format: physicochemical
Text: Tabelle 1 zeigt die Wasserlöslichkeit der erfindungsgemäßen Verbindung PMD-S (para-Menthane-3,8-diol Succinat) im Vergleich zu üblichen in Insektenschutzmitteln eingesetzten Wirkstoffen. Tabelle 1

[2] = system: Keratinozyten (SK-Mel-28); assay: cells; format: cell-based; details: Homo sapiens, SK-MEL-28, SK-Mel-28; concentration at which 50 % of the cells die, relative to untreated control cells; read-out: Keratinocyten Zellen IC50
Text: (§1) Hierzu wurden Zytotoxizitätsstudien an HeLa-Zellen und an Keratinozyten (SK-Mel-28) durchgeführt. Erstere Tests gelten als gute Alternative zu in vivo Draize Augenreizungstests, während letztere ein gutes Modell für die Hautkompatibilität sind.

[3] = system: HeLa-Zellen; assay: cells; format: cell-based; details: Homo sapiens, concentration at which 50 % of the cells die, relative to untreated control cells
Text: as §1

Compound	Löslichkeit in Wasser ([1]; bei 25°C)	IC50 [2]	Löslichkeit in Wasser [1]	IC50 [3]	Löslichkeit in Wasser ([1]; bei 20°C)
CC1CCC(C(C)(C)O)C(O)C1 (stereo not drawn) [PMD, para-Menthan-3,8-diol]	0.29 g/L bei 25 °C	14.2 ± 5.23 µM			
CCN(CC)C(=O)c1cccc(C)c1 [DEET, N,N-Diethyl-m-methylbenzamid]		8.1 ± 3.41 µM	1 g/L bei 25 °C	12.4 ± 1.89 µM	
CC[C@@H](C)OC(=O)N1CCCC[C@@H]1CCO (racemic) [KBR 3023, (RS)-sec-butyl-(RS)-2-(2hydroxyethyl) piperidine-1-carboxylat]					8.2 g/L bei 20 °C
CCCCN(CCC(=O)OCC)C(C)=O [IR 3535, Ethyl-3-[(acetyl)(butyl)amino]propanoat]		17.5 ± 2.76 µM	70 g/L bei 20 °C	12.5 ± 1.17 µM	

— patent publication EP2439188B1, “p-Menthane-3,8-diol derivatives and insect repellents comprising them” (priority 2010, dated 2012)
